From US20220144809A1, “COMPOUNDS AND METHODS FOR THE TARGETED DEGRADATION OF ANDROGEN RECEPTOR AND ASSOCIATED METHODS OF USE” (Arvinas Operations, Inc., priority 2020, published 2022)

These molecules were tested on Androgen Receptor (AR) (assay: Androgen Receptor ELISA assay (AR degradation in LNCaP and/or VCaP cells)). Conditions: degradation of AR, 5 hours incubation, R1881 in media.
Type: cell-based
Procedure: Assay for Testing AR Degradation Driven by Compounds of the Present Disclosure.
Androgen Receptor ELISA Assay. Compounds were evaluated in the following assay in LNCaP and/or VCaP cells utilizing similar protocols. The protocols used with VCaP cells are described below. The androgen receptor ELISA assay was performed using PathScan AR Sandwich ELISA (Cell Signaling Catalog#12850) according to the following assay steps.
VCaP cells were seeded at 40,000 cells/well at a volume of 100 μL/well in VCaP assay medium [Phenol red free RPMI (Gibco Cat#11835-030); 5% Charcoal Stripped (Dextran treated) FBS (Omega Scientific, Cat#FB-04); 1% penstrep (Life Technologies, Gibco Cat#: 10378-016)] in Corning 3904 plates. The cells were grown for a minimum of 3 days.
First, cells were dosed with compounds diluted in […]—in a polypropylene plate avoiding the use of outer columns according to the following protocol: (1)(i) 1000× stock plate in DMSO was made; (ii) 20 mM stock diluted 1/6.7 with DMSO (5 μL+28.3 μL DMSO)=3 mM into row H; (iii) serial dilutions in ½ log doses (10 μL of bifunctional compound+20 μL DMSO) was performed from row H towards row B with row A being reserved for DMSO; (iv) 7 doses total (final concentration in this 1000× plate will be 3 mM, 1 mM, 333 μM, 111 μM, etc). (2)(i) A 10× stock plate in media was made; (ii) 2.5 μL of the 1000× stock was trasnferred to a new 10× stock plate (use 12 channel pipet, start at A (DMSO control) work thru H. When 247.5 μL of media was added to this plate, it served as a 10× stock; (iii) made media+1 nM R1881 for making 10× stock plate; (iv) added 247.5 μL of media with 1 nM R1881 to each well of the 10× stock plate, mix.
Then 22 μL of 10× stock was added to cells and incubated for 5 hours. 1× Cell Signaling Cell lysis buffer was made (Catalogue #9803; comes with the kit) to have […], and was kept on ice. Media was aspirated, and 100 μL 1× cell lysis buffer/well was added. The cells were placed on a shaker located in a cold room for 10 minutes and shaken at speed 7. The lysate mixture was mix and 20 μL transferred to 100 μl of Diluent in ELISA plate (0.15 μg/ml-0.075 μg/ml). The lysate-diluent mixture was store at 4° C. overnight on a shaker located in a cold room at speed 5 (gentle swirl).
The lysate-diluent mixture was shaken for 30 minutes at 37° C. The mouse AR antibody, anti-mouse antibody, TMB, and STOP solution were allowed to come to room temperature. The 1×ELISA buffer included in kit was made and loaded in reservoir. Media from the plate was discarded, the ELISA plate was tapped hard on paper towel, and washed 4×200 μl ELISA wash buffer using a plate washer for the first three washes and an eight channel aspirator for the fourth wash to more thoroughly aspirate the solution.
Next, 100 μL/well of mouse AR detection Ab was added; the plate was covered and shaken at 37° C. for 1 hour; media was discarded from the plates, the plates tapped on a paper towel and washed four times with 200 μL ELISA wash buffer with a plate washer for the first three washes and an eight channel aspirator for the fourth wash; 100 μL/well of anti-mouse—HRP conjugated Ab (comes with the kit) was added; the plates wascover and shaken at 37° C. for 30 minutes; the TMB reagent was allowed to come to room temperature; the media from the plate was discarded, the plates tapped on paper towel, and washed four times with 200 μL ELISA wash buffer with a plate washer for the first three washes and an eight channel aspirator for the fourth wash; plates were tapped on paper towl; 100 μL TMB was added to each well and the plate shaken for 2 minutes—while watching color. STOP solution (100 μL) was added when light blue color developed. The plates were shake and read at 450 nm.
Data was analyzed and plotted using GraphPad Prism software. Exemplary compounds of Table 1 were assayed and the data shown below in Table 2. […]
CC(C)N(CC1CCN(c2ccc(N3C(=S)N(c4cnc(C#N)c(C(F)(F)F)c4)C(=O)C34CCC4)cn2)CC1)[C@H]1C[C@H](Oc2ccc3c(c2)C(=O)N(C2CCC(=O)NC2=O)C3=O)C1 (stereo partly drawn) [Compound 13, 5-(5-(6-(4-((((1r,3r)-3-((2-(2,6-dioxopiperidin-3-yl)-1,3-dioxoisoindolin-5-yl)oxy)cyclobutyl)(isopropyl)amino)methyl)piperidin-1-yl)pyridin-3-yl)-8-oxo-6-thioxo-5,7-diazaspiro[3.4]octan-7-yl)-3-(trifluoromethyl)picolinonitrile] was tested, and the DC50 was 1 to 10 nM and the “Dmax Code” value was “C (C<50)”.
With N#Cc1ncc(N2C(=O)C3(CCC3)N(c3ccc(N4CCC(CN5CCN(c6ccc7c(c6)C(=O)N(C6CCC(=O)NC6=O)C7)CC5)CC4)cc3)C2=S)cc1Cl (stereo not drawn) [Compound 2, 3-chloro-5-(5-(4-(4-((4-(2-(2,6-dioxopiperidin-3-yl)-3-oxoisoindolin-5-yl)piperazin-1-yl)methyl)piperidin-1-yl)phenyl)-8-oxo-6-thioxo-5,7-diazaspiro[3.4]octan-7-yl)picolinonitrile] the DC50 was under 1 nM and the “Dmax Code” value was “A (A≥70)”.
For CC(C)N(CC1CCN(Cc2ccc(-n3c(=O)n(-c4ccc(C#N)c(C(F)(F)F)c4)c4ccccc43)cc2)CC1)[C@H]1C[C@H](Oc2ccc3c(c2)C(=O)N(C2CCC(=O)NC2=O)C3=O)C1 (stereo partly drawn) [Compound 15, 4-(3-(4-((4-((((1r,3r)-3-((2-(2,6-dioxopiperidin-3-yl)-1,3-dioxoisoindolin-5-yl)oxy)cyclobutyl)(isopropyl)amino)methyl)piperidin-1-yl)methyl)phenyl)-2-oxo-2,3-dihydro-1H-benzo[d]imidazol-1-yl)-2-(trifluoromethyl)benzonitrile], the DC50 was 1 to 10 nM and the “Dmax Code” value was “C (C<50)”.
For N#Cc1ccc(N2C(=O)C3(CCC3)N(c3ccc(N4CCC(CN5CCN(c6ccc7c(c6)C(=O)N(C6CCC(=O)NC6=O)C7=O)CC5)CC4)cc3)C2=S)cc1Cl (stereo not drawn) [Compound 9, 2-chloro-4-(5-(4-(4-((4-(2-(2,6-dioxopiperidin-3-yl)-1,3-dioxoisoindolin-5-yl)piperazin-1-yl)methyl)piperidin-1-yl)phenyl)-8-oxo-6-thioxo-5,7-diazaspiro[3.4]octan-7-yl)benzonitrile], the DC50 was 1 to 10 nM and the “Dmax Code” value was “A (A≥70)”.
In the case of Cc1c(C#N)c(-c2ccc(C#N)cc2)c(C)n1Cc1ccc(OCCOCCOCCN2CCC(CN3CCN(c4ccc5c(c4)C(=O)N(C4CCC(=O)NC4=O)C5=O)CC3)CC2)cc1 (stereo not drawn) [Compound 21, 4-(4-cyanophenyl)-1-(4-(2-(2-(2-(4-((4-(2-(2,6-dioxopiperidin-3-yl)-1,3-dioxoisoindolin-5-yl)piperazin-1-yl)methyl)piperidin-1-yl)ethoxy)ethoxy)ethoxy)benzyl)-2,5-dimethyl-1H-pyrrole-3-carbonitrile], the DC50 is reported as at least 100 nM and the “Dmax Code” value is reported as “C (C<50)”.
For CC(C)N(C[C@H]1C[C@H](Oc2ccc(N3C(=S)N(c4cnc(C#N)c(C(F)(F)F)c4)C(=O)C34CCC4)cn2)C1)[C@H]1C[C@H](Oc2ccc3c(c2)C(=O)N(C2CCC(=O)NC2=O)C3=O)C1 (stereo partly drawn) [Compound 8, 5-(5-(6-((1R,3r)-3-((((1r,3R)-3-((2-(2,6-dioxopiperidin-3-yl)-1,3-dioxoisoindolin-5-yl)oxy)cyclobutyl)(isopropyl)amino)methyl)cyclobutoxy)pyridin-3-yl)-8-oxo-6-thioxo-5,7-diazaspiro[3.4]octan-7-yl)-3-(trifluoromethyl)picolinonitrile], the DC50 was 1 to 10 nM and the “Dmax Code” value was “C (C<50)”.
CCN(CC1CCN(c2ccc(CN3C(=S)N(c4ccc(C#N)c(C(F)(F)F)c4)C(=O)C3(C)C)cn2)CC1)[C@H]1C[C@H](Oc2ccc3c(c2)C(=O)N(C2CCC(=O)NC2=O)C3=O)C1 (stereo partly drawn) [Compound 4, 4-(3-((6-(4-((((1r,3r)-3-((2-(2,6-dioxopiperidin-3-yl)-1,3-dioxoisoindolin-5-yl)oxy)cyclobutyl)(ethyl)amino)methyl)piperidin-1-yl)pyridin-3-yl)methyl)-4,4-dimethyl-5-oxo-2-thioxoimidazolidin-1-yl)-2-(trifluoromethyl)benzonitrile] was tested, and the DC50 was under 1 nM and the “Dmax Code” value was “C (C<50)”.
CC1(C)C(=O)N(c2ccc(C#N)c(C(F)(F)F)c2)C(=S)N1Cc1ccc(OCCN2CCC(CN3CCN(c4ccc5c(c4)C(=O)N(C4CCC(=O)NC4=O)C5=O)CC3)CC2)nc1 (stereo not drawn) [Compound 14, 4-(3-((6-(2-(4-((4-(2-(2,6-dioxopiperidin-3-yl)-1,3-dioxoisoindolin-5-yl)piperazin-1-yl)methyl)piperidin-1-yl)ethoxy)pyridin-3-yl)methyl)-4,4-dimethyl-5-oxo-2-thioxoimidazolidin-1-yl)-2-(trifluoromethyl)benzonitrile] was tested, and the DC50 was 1 to 10 nM and the “Dmax Code” value was “B (50≤B<70)”.
Cc1c(C#N)c(-c2ccc(C#N)cc2)c(C)n1Cc1ccc(OCCN2CCC(CN3CCN(c4ccc5c(c4)C(=O)N(C4CCC(=O)NC4=O)C5=O)CC3)CC2)cc1 (stereo not drawn) [Compound 20, 4-(4-cyanophenyl)-1-(4-(2-(4-((4-(2-(2,6-dioxopiperidin-3-yl)-1,3-dioxoisoindolin-5-yl)piperazin-1-yl)methyl)piperidin-1-yl)ethoxy)benzyl)-2,5-dimethyl-1H-pyrrole-3-carbonitrile] was tested, and the DC50 was at least 100 nM and the “Dmax Code” value was “C (C<50)”.
N#Cc1ncc(N2C(=O)C3(CCC3)N(c3ccc(C4CCN(CC5CCN(c6ccc7c(c6)C(=O)N(C6CCC(=O)NC6=O)C7)CC5)CC4)cc3)C2=S)cc1Cl (stereo not drawn) [Compound 11] was tested, and the DC50 was 1 to 10 nM and the “Dmax Code” value was “C (C<50)”.
CC(C)N(CC1CCN(CCCn2c(=O)n(-c3ccc(C#N)c(C(F)(F)F)c3)c3ccccc32)CC1)[C@H]1C[C@H](Oc2ccc3c(c2)C(=O)N(C2CCC(=O)NC2=O)C3=O)C1 (stereo partly drawn) [Compound 23, 4-(3-(3-(4-((((1r,3r)-3-((2-(2,6-dioxopiperidin-3-yl)-1,3-dioxoisoindolin-5-yl)oxy)cyclobutyl)(isopropyl)amino)methyl)piperidin-1-yl)propyl)-2-oxo-2,3-dihydro-1H-benzo[d]imidazol-1-yl)-2-(trifluoromethyl)benzonitrile] was tested, and the DC50 was at least 100 nM and the “Dmax Code” value was “C (C<50)”.
In the case of Cc1c(C#N)c(-c2ccc(C#N)cc2)c(C)n1Cc1ccc(N2CCC(CN3CCN(c4ccc5c(c4)C(=O)N(C4CCC(=O)NC4=O)C5=O)CC3)CC2)cc1 (stereo not drawn) [Compound 18, 4-(4-cyanophenyl)-1-(4-(4-((4-(2-(2,6-dioxopiperidin-3-yl)-1,3-dioxoisoindolin-5-yl)piperazin-1-yl)methyl)piperidin-1-yl)benzyl)-2,5-dimethyl-1H-pyrrole-3-carbonitrile], the DC50 is reported as at least 100 nM and the “Dmax Code” value is reported as “C (C<50)”.
